Patent US20190307843A1, “SINGLE DOSE METHODS FOR PREVENTING AND TREATING FUNGAL INFECTIONS” (Cidara Therapeutics, Inc., priority 2016, published 2019)
Read-outs that look alike come from different tables or passages of the source.

Legend:
C. albicans strain 529L = assay: Rat model of vulvovaginal candidiasis, vaginal lavage and tissue burden; format: in vivo, Candida albicans
Candida auris strains = assay: Candida auris antifungal susceptibility testing (CLSI M27-A3), 38 strains; format: cell-based; settings: for MIC: Candidozyma auris
[1] = 20 mg/kg PO Dosed Once, lavage Day 1 post infection, pre-treatment
[2] = 20 mg/kg PO Dosed Once, lavage Day 2 post infection
[3] = 20 mg/kg PO Dosed Once, lavage Day 3 post infection
[4] = 20 mg/kg PO Dosed Once, lavage Day 5 post infection
[5] = 20 mg/kg PO Dosed Once, lavage Day 7 post infection
[6] = 20 mg/kg PO Dosed Once, lavage Day 9 post infection
[7] = 20 mg/kg PO Dosed Once, terminal vaginal tissue Day +9 post infection
[8] = 20 mg/kg PO Dosed Twice, lavage Day 1 post infection, pre-treatment
[9] = 20 mg/kg PO Dosed Twice, lavage Day 2 post infection
[10] = 20 mg/kg PO Dosed Twice, lavage Day 3 post infection
[11] = 20 mg/kg PO Dosed Twice, lavage Day 5 post infection
[12] = 20 mg/kg PO Dosed Twice, lavage Day 7 post infection
[13] = 20 mg/kg PO Dosed Twice, lavage Day 9 post infection
[14] = 20 mg/kg PO Dosed Twice, terminal vaginal tissue Day +9 post infection

OC(Cn1cncn1)(Cn1cncn1)c1ccc(F)cc1F [fluconazole]
3.16 × 10^3 CFU/mL: Group Geometric mean (C. albicans strain 529L; [1])
5.49 CFU/g: Log reduction from vehicle control (C. albicans strain 529L; [7]) | Log reduction from vehicle control (C. albicans strain 529L; [14])
0.17 CFU/mL: Log Group Geometric mean (C. albicans strain 529L; [10])
2.18 CFU/mL: Log Group Geometric mean (C. albicans strain 529L; [2])
4.22 CFU/mL: Log reduction from vehicle control (C. albicans strain 529L; [4]) | Log reduction from vehicle control (C. albicans strain 529L; [11])
2.10 CFU/mL: Log Group Geometric mean (C. albicans strain 529L; [9])
128 µg/mL: MIC (Candida auris strains; 24 h, strain 15 VCPI 1132/P/13) | MIC (Candida auris strains; 24 h, strain 17 VCPI 105/P/14) | MIC (Candida auris strains; 24 h, strain 20 VCPI 511/P/14) | MIC (Candida auris strains; 48 h, strain 3 VCPI 674/P/12) | MIC (Candida auris strains; 48 h, strain 6 VCPI 712/P/12) | MIC (Candida auris strains; 48 h, strain 9 VCPI 478/P/13) | MIC (Candida auris strains; 48 h, strain 10 VCPI 479/P/13) | MIC (Candida auris strains; 48 h, strain 13 VCPI 483/P/13) | MIC (Candida auris strains; 48 h, strain 15 VCPI 1132/P/13) | MIC (Candida auris strains; 48 h, strain 17 VCPI 105/P/14)
3.50 CFU/mL: Log Group Geometric mean (C. albicans strain 529L; [1])
4 µg/mL: MIC (Candida auris strains; 24 h, strain 35 VCPI 717/P/14, 24 h, read-out: MIC)
below the limit of detection: lavage burden (C. albicans strain 529L; fluconazole once or twice, all rats, Day 5 post infection) | terminal vaginal tissue burden (C. albicans strain 529L; fluconazole once or twice, all rats, Day 9)
0.00 CFU/mL: Log Group Geometric mean (C. albicans strain 529L; [3]) | Log Group Geometric mean (C. albicans strain 529L; [4]) | Log Group Geometric mean (C. albicans strain 529L; [5]) | Log Group Geometric mean (C. albicans strain 529L; [6]) | Log Group Geometric mean (C. albicans strain 529L; [11]) | Log Group Geometric mean (C. albicans strain 529L; [12]) | Log Group Geometric mean (C. albicans strain 529L; [13])
3.40 CFU/mL: Log reduction from vehicle control (C. albicans strain 529L; [10])
> 128 µg/mL: MIC (Candida auris strains; 24 h, strain 1 VPCI 669/P/12) | MIC (Candida auris strains; 24 h, strain 2 VCPI 671/P/12) | MIC (Candida auris strains; 24 h, strain 3 VCPI 674/P/12) | MIC (Candida auris strains; 24 h, strain 4 VCPI 683/P/12) | MIC (Candida auris strains; 24 h, strain 5 VCPI 692/P/12) | MIC (Candida auris strains; 24 h, strain 6 VCPI 712/P/12) | MIC (Candida auris strains; 24 h, strain 7 VCPI 471/P/13) | MIC (Candida auris strains; 24 h, strain 8 VCPI 475/P/13) | MIC (Candida auris strains; 24 h, strain 9 VCPI 478/P/13) | MIC (Candida auris strains; 24 h, strain 10 VCPI 479/P/13) | MIC (Candida auris strains; 24 h, strain 11 VCPI 480/P/13) | MIC (Candida auris strains; 24 h, strain 12 VCPI 482/P/13) | MIC (Candida auris strains; 24 h, strain 13 VCPI 483/P/13) | MIC (Candida auris strains; 24 h, strain 16 VCPI 1133/P/13) | MIC (Candida auris strains; 24 h, strain 19 VCPI 510/P/14) | MIC (Candida auris strains; 24 h, strain 22 VCPI 513/P/14) | MIC (Candida auris strains; 24 h, strain 23 VCPI 514/P/14) | MIC (Candida auris strains; 24 h, strain 25 VCPI 265/P/14) | MIC (Candida auris strains; 24 h, strain 26 VCPI 266/P/14) | MIC (Candida auris strains; 24 h, strain 27 VCPI 462/P/14) | MIC (Candida auris strains; 24 h, strain 28 VCPI 463/P/14) | MIC (Candida auris strains; 24 h, strain 29 VCPI 467/P/14) | MIC (Candida auris strains; 24 h, strain 30 VCPI 471a/P/14) | MIC (Candida auris strains; 24 h, strain 31 VCPI 478/P/14) | MIC (Candida auris strains; 24 h, strain 32 VCPI 518/P/14) | MIC (Candida auris strains; 24 h, strain 33 VCPI 550/P/14) | MIC (Candida auris strains; 24 h, strain 34 VCPI 714/P/14) | MIC (Candida auris strains; 24 h, strain 36 VCPI 1060/P/14) | MIC (Candida auris strains; 24 h, strain 37 VCPI 74/P/15) | MIC (Candida auris strains; 24 h, strain 38 VCPI 213/P/15) | MIC (Candida auris strains; 48 h, strain 1 VPCI 669/P/12) | MIC (Candida auris strains; 48 h, strain 2 VCPI 671/P/12) | MIC (Candida auris strains; 48 h, strain 4 VCPI 683/P/12) | MIC (Candida auris strains; 48 h, strain 5 VCPI 692/P/12) | MIC (Candida auris strains; 48 h, strain 7 VCPI 471/P/13) | MIC (Candida auris strains; 48 h, strain 11 VCPI 480/P/13) | MIC (Candida auris strains; 48 h, strain 12 VCPI 482/P/13) | MIC (Candida auris strains; 48 h, strain 16 VCPI 1133/P/13) | MIC (Candida auris strains; 48 h, strain 18 VCPI 107/P/14) | MIC (Candida auris strains; 48 h, strain 19 VCPI 510/P/14) | MIC (Candida auris strains; 48 h, strain 20 VCPI 511/P/14) | MIC (Candida auris strains; 48 h, strain 21 VCPI 512/P/14) | MIC (Candida auris strains; 48 h, strain 22 VCPI 513/P/14) | MIC (Candida auris strains; 48 h, strain 23 VCPI 514/P/14) | MIC (Candida auris strains; 48 h, strain 24 VCPI 250/P/14) | MIC (Candida auris strains; 48 h, strain 25 VCPI 265/P/14) | MIC (Candida auris strains; 48 h, strain 26 VCPI 266/P/14) | MIC (Candida auris strains; 48 h, strain 27 VCPI 462/P/14) | MIC (Candida auris strains; 48 h, strain 28 VCPI 463/P/14) | MIC (Candida auris strains; 48 h, strain 29 VCPI 467/P/14) | MIC (Candida auris strains; 48 h, strain 30 VCPI 471a/P/14) | MIC (Candida auris strains; 48 h, strain 31 VCPI 478/P/14) | MIC (Candida auris strains; 48 h, strain 32 VCPI 518/P/14) | MIC (Candida auris strains; 48 h, strain 33 VCPI 550/P/14) | MIC (Candida auris strains; 48 h, strain 34 VCPI 714/P/14) | MIC (Candida auris strains; 48 h, strain 35 VCPI 717/P/14) | MIC (Candida auris strains; 48 h, strain 36 VCPI 1060/P/14) | MIC (Candida auris strains; 48 h, strain 37 VCPI 74/P/15) | MIC (Candida auris strains; 48 h, strain 38 VCPI 213/P/15)
about 1.6 Log10 CFU/mL: reduction in burden (C. albicans strain 529L; fluconazole 20 mg/kg PO, lavage Day 2 post infection)
3.02 CFU/mL: Log Group Geometric mean (C. albicans strain 529L; [8])
1.04 × 10^3 CFU/mL: Group Geometric mean (C. albicans strain 529L; [8])
16 µg/mL: MIC (Candida auris strains; 24 h, strain 21 VCPI 512/P/14, 24 h, read-out: MIC)
11/12: rats having burden below the limit of detection (C. albicans strain 529L; fluconazole 20 mg/kg PO once or twice, lavage Day 3 post infection)
−0.58 CFU/mL: Log reduction from vehicle control (C. albicans strain 529L; [8])
1.49 CFU/mL: Group Geometric mean (C. albicans strain 529L; [10])
4.30 CFU/mL: Log reduction from vehicle control (C. albicans strain 529L; [6]) | Log reduction from vehicle control (C. albicans strain 529L; [13])
38: number of resistant isolates (Candida auris strains; of 38 C. auris isolates)
32 µg/mL: MIC (Candida auris strains; 24 h, strain 14 VCPI 1130/P/13, 24 h, read-out: MIC)
1.59 CFU/mL: Log reduction from vehicle control (C. albicans strain 529L; [9])
4.18 CFU/mL: Log reduction from vehicle control (C. albicans strain 529L; [5]) | Log reduction from vehicle control (C. albicans strain 529L; [12])
1.50 × 10^2 CFU/mL: Group Geometric mean (C. albicans strain 529L; [2])
3.57 CFU/mL: Log reduction from vehicle control (C. albicans strain 529L; [3])
−1.06 CFU/mL: Log reduction from vehicle control (C. albicans strain 529L; [1])
1.00 CFU/g: Group Geometric mean (C. albicans strain 529L; [7]) | Group Geometric mean (C. albicans strain 529L; [14])
0.00 CFU/g: Log Group Geometric mean (C. albicans strain 529L; [7]) | Log Group Geometric mean (C. albicans strain 529L; [14])
64 µg/mL: MIC (Candida auris strains; 24 h, strain 18 VCPI 107/P/14, 24 h, read-out: MIC) | MIC (Candida auris strains; 24 h, strain 24 VCPI 250/P/14, 24 h, read-out: MIC) | MIC (Candida auris strains; 48 h, strain 8 VCPI 475/P/13, 48 h, read-out: MIC) | MIC (Candida auris strains; 48 h, strain 14 VCPI 1130/P/13, 48 h, read-out: MIC)
1.52 CFU/mL: Log reduction from vehicle control (C. albicans strain 529L; [2])
1.27 × 10^2 CFU/mL: Group Geometric mean (C. albicans strain 529L; [9])
1.00 CFU/mL: Group Geometric mean (C. albicans strain 529L; [3]) | Group Geometric mean (C. albicans strain 529L; [4]) | Group Geometric mean (C. albicans strain 529L; [5]) | Group Geometric mean (C. albicans strain 529L; [6]) | Group Geometric mean (C. albicans strain 529L; [11]) | Group Geometric mean (C. albicans strain 529L; [12]) | Group Geometric mean (C. albicans strain 529L; [13])
